# Experimental data: paper PMC3994062, “Inhibition of Paracoccidioides lutzii Pb01 Isocitrate Lyase by the Natural Compound Argentilactone and Its Semi-Synthetic Derivatives” (PLoS ONE, 2014)
# Read-outs that look alike come from different tables or passages of the source.
# Tests used:
# [1] = tested on: P. lutzii Pb01 differentiation from mycelium to yeast; assay: Transition from mycelium to yeast (dimorphism); format: cell-based, Paracoccidioides lutzii; settings: glucose or acetate; 10 days at 36°C
# Protocol: The differentiation from mycelium to yeast was performed in Mc Veigh and Morton (MMcM) liquid minimal medium containing glucose (0.11 M) or acetate (0.28 M) as the carbon source. The cultivation temperature was changed from 23°C to 36°C to allow the mycelium to yeast transition. The cells were previously grown in liquid medium for 18 h before changing the incubation temperature, which was maintained for 10 days. The appearance of yeast cells was monitored using a Neubauer chamber.
# [2] = tested on: P. lutzii Pb01 yeast cells; assay: Inhibition and sensitivity assay, P. lutzii Pb01 yeast cells growth (broth macro dilution / spot on MMcM agar); format: cell-based, Paracoccidioides lutzii; settings: for effect on P. lutzii Pb01 yeast cells growth: glucose or acetate as carbon source, 9 to 72 µg/mL; for MIC: read-out: minimal inhibitory concentration
# Protocol: Inhibition assays were performed by broth macro dilution method according to NCCLS M27-A2 guidelines with modifications. For the inhibition assays, yeast cells in their exponential growth phase were kept on solid MMcM for seven days at 36°C and inoculated in liquid MMcM medium. Sterile stock solution of the argentilactone, reduced argentilactone, epoxy argentilactone and diol argentilactone were freshly prepared in water and dimethyl sulfoxide (DMSO). Serial dilutions from stock solutions were prepared with sterile MMcM medium as the diluent, to yield final compound concentrations ranging from 9 to 72 µg/mL. Drug-free controls were included. Inocula concentrations were determined spectrophotometrically at 520 nm. The mixture was vortexed to disperse the aggregated cells. P. lutzii Pb01 was grown at 36°C, 200 rpm shaking for 10 days. For the sensitivity assay, 7-day-old P. lutzii Pb01 yeast cells were grown in liquid MMcM overnight at 36°C. Samples containing 10^5, 10^4, and 10^3 cells were spotted onto MMcM agar medium supplemented with argentilactone, reduced argentilactone, epoxy argentilactone, or diol argentilactone at concentrations of 9 µg/mL, 18 µg/mL, 36 µg/mL, or 72 µg/mL. […] The plates were incubated for 6 days at 36°C before being photographed.
# PbICLr = PbICLr (Paracoccidioides lutzii, UniProt C1H8F5); assay: Enzymatic activity of recombinant isocitrate lyase (PbICLr); format: biochemical; settings: for Specific activity PbICLr: control 2.55±0.02
# Sequence of PbICLr (C1H8F5 entry or part of it): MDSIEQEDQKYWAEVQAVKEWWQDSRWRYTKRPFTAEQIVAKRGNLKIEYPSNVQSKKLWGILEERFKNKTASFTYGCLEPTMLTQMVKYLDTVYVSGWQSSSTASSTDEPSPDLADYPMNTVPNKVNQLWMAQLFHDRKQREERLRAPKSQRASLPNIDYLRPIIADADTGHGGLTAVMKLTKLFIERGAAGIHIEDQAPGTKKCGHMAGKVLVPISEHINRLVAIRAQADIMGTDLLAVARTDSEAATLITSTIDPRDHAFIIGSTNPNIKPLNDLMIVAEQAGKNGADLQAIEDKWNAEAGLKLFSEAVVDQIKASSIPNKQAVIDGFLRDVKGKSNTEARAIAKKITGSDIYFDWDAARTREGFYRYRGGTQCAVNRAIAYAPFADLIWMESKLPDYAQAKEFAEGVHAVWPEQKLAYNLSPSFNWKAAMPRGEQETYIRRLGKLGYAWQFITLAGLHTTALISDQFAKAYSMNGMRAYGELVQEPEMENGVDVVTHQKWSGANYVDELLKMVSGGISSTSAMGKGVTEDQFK
# Protocol: Recombinant PbICL protein was obtained as described by Cruz. Briefly, Pbicl cDNA was inserted into the pET-32a (+) expression vector (Novagen, Inc,). The resulting plasmid was transformed into E. coli BL21 C43 (DE3) cells, and expression was induced at an A600 of 0.6 by the addition of 1 mm (final concentration) isopropyl thio-β-D-galactoside (IPTG) (Sigma-Aldrich). After induction, the cells were incubated for another 2 h at 36°C with shaking at 200 rpm. The cells were harvested by centrifugation at 10,000×g for 5 min at 4°C and resuspended in 1 × NaCl/Pi buffer. After incubation for 30 min with 100 µg/mL lysozyme, the cells were lysed by extensive sonication. The sample was centrifuged at 4°C and 8,000×g for 15 min, and the supernatant, which contained the soluble protein fraction, was collected. His-tagged ICL was purified using the Ni-NTA Spin Kit (Qiagen), and the tags were subsequently removed by the addition of EKMax™ enterokinase (Invitrogen).
# (§1) ICL activity was determined according to Cruz et al.. Reactions were performed in 1 mL assay volume containing 2 mM threo-D,L-isocitrate (effective concentration of threo-D-isocitrate 1 mM), 2 mM MgCl2, 10 mM phenylhydrazine HCl, 2 mM dithiothreitol, and 50 mM Tris HCl buffer (pH 7.0). The product glyoxylate-phenylhydrazone was followed at 324 nm using an extinction coefficient of 16.8 mM^−1.cm^−1. One unit of enzyme activity was defined as the formation of 1 µmol of glyoxylate-phenylhydrazone per minute using threo-D,L-isocitrate as the substrate. The specific activities were given as U.mg^−1 protein.
# (§2) The compound concentrations were 10 µM, 20 µM, 30 µM, and 40 µM for recombinant PbICL and 30 µM, 40 µM, 50 µM, 60 µM, 70 µM, 80 µM and 90 µM for native PbICL. 3-nitropropinate (50.7 µM) was used as positive control. To the assays of specific activity of PbICL from mycelium, transition, and yeast, the cells were cultured for 10 days on 23°C and 36°C, and were used 18 µg/mL of argentilactone.
# PbICLc = PbICLc (Paracoccidioides lutzii, UniProt C1H8F5); assay: Enzymatic activity of native PbICL in crude protein extract of yeast cells (PbICLc); format: biochemical; settings: for inhibition of native PbICL activity: crude extract of yeast cells; for Specific activity PbICLc Acetate: crude extract of yeast cells grown on acetate, control 0.080±0.004; for Specific activity PbICLc Acetate / Specific activity PbICLc Glucose / IC50 PbICLc Acetate / IC50 PbICLc Glucose / IC50: N.I. = No inhibition found; for Specific activity PbICLc Glucose: crude extract of yeast cells grown on glucose, control 0.010±0.002; for IC50 PbICLc Acetate / IC50 PbICLc Glucose / IC50: crude extract
# Sequence of PbICLc (C1H8F5 entry or part of it): as above
# Protocol: P. lutzii Pb01 yeast cells grown for 24 h in liquid minimal MMcM medium containing glucose or acetate as the carbon source were centrifuged for 5 min at 2.500×g. The proteins were extracted as previously described. The cells were washed with sterilized water and frozen in liquid nitrogen. The material was ground to a fine powder; resuspended in 500 µL of 50 mM potassium phosphate buffer (pH 7.0) supplemented with 1 mM dithiothreitol (DTT) and vigorously mixed with glass beads for 20 min at 4°C. The cell debris was removed by centrifugation for 15 min at 4°C and 5,000×g, and the supernatant was centrifuged for 15 min at 4°C and 12,000×g. The cell-free extract was used for the ICL activity assays or stored at −20°C for further analyses. Quantification of the protein content was performed according to Bradford.
# as §1, §2
# dermatophytes = tested on: dermatophytes; set-up: method as in doi:10.1590/S0103-50532004000500023; settings: cited from earlier work
# PbICL = PbICL activity from phases of P. lutzii Pb01 cultured with argentilactone; format: biochemical, Paracoccidioides lutzii; settings: for PbICL specific activity: treated with 18 µg/mL; for inhibition of PbICL: 18 µg/mL, over the phases
# Protocol: as §1, §2
# [3] = tested on: P. lutzii Pb01 yeast cells; assay: Viability assay of P. lutzii Pb01 yeast cells (Neubauer chamber); format: cell-based, Paracoccidioides lutzii; settings: 18 µg/mL, after 6 h of incubation
# Protocol: P. lutzii Pb01 yeast cells were sub-cultured every 7 days in solid Fava-Netto’s medium at 36°C. For viability experiments, yeast cells were kept in liquid McVeigh Morton (MMcM) chemically defined medium for 6 h at 36°C and viability of the cells determined by counting viable cells in a Neubauer chamber. All experiments were performed in triplicate.
# MRC5 cells = assay: Toxicity to MRC5 cells; format: cell-based; settings: 18 µg/mL; data not shown
# [4] = recombinant enzyme, N.I. = No inhibition found
# [5] = read-out: IC50 PbICLc Acetate, acetate
# [6] = read-out: IC50 PbICLc Glucose, glucose
smiles,measurement,setting,value
"CCCCCC1OC1C1CC=CC(=O)O1 [Epoxi argentilactone, 2H-Pyran-2-one, 5,6-dihydro-6-[(2S, 3S)-3-pentyl-2-oxiranyl] -, (6R)]",inhibition of the dimorphism mycelium to yeast,[1],did not interfere
same,effect on P. lutzii Pb01 yeast cells growth,[2],very small effect
same,effect against PbICLr,PbICLr; recombinant enzyme,no effect
same,IC50 PbICLr,PbICLr; [4],N.I. ^**
same,Specific activity PbICLr,PbICLr; [4],N.I. ^**
same,inhibition of native PbICL activity,PbICLc,No inhibition
same,Specific activity PbICLc Acetate,PbICLc,N.I. ^**
same,Specific activity PbICLc Glucose,PbICLc,N.I. ^**
same,IC50 PbICLc Acetate,PbICLc; acetate,N.I. ^**
same,IC50 PbICLc Glucose,PbICLc; glucose,N.I. ^**
"O=C(O)CC[N+](=O)[O-] [3-Nitropropionate, reference compound]",Specific activity PbICLr,PbICLr; [4],0.81±0.01 U/mg
same,IC50,"PbICLr; recombinant enzyme, N.I. = No inhibition found, read-out: IC50 PbICLr",25.7 ± 0.01 µM
same,Specific activity PbICLc Acetate,PbICLc,0.036±0.002 U/mg
same,Specific activity PbICLc Glucose,PbICLc,0.008±0.001 U/mg
same,IC50,"PbICLc; acetate, read-out: IC50 PbICLc Acetate",45.4 ± 0.01 µM
same,IC50,"PbICLc; glucose, read-out: IC50 PbICLc Glucose",76 ± 0.01 µM
"CCCCC[C@@H](O)[C@H](O)[C@H]1CC=CC(=O)O1 [Diol argentilactone, 2H-Pyran-2-one, 6-(1,2-dihydroxyheptyl)-5,6-dihydro-, [6R-(1S, 2R)]]",inhibition of the dimorphism mycelium to yeast,[1],did not interfere
same,effect on P. lutzii Pb01 yeast cells growth,[2],very small effect
same,effect against PbICLr,PbICLr; recombinant enzyme,no effect
same,IC50 PbICLr,PbICLr; [4],N.I. ^**
same,Specific activity PbICLr,PbICLr; [4],N.I. ^**
same,inhibition of native PbICL activity,PbICLc,No inhibition
same,Specific activity PbICLc Acetate,PbICLc,N.I. ^**
same,Specific activity PbICLc Glucose,PbICLc,N.I. ^**
same,IC50 PbICLc Acetate,PbICLc; acetate,N.I. ^**
same,IC50 PbICLc Glucose,PbICLc; glucose,N.I. ^**
"CCCCCCCC1CC=CC(=O)O1 (stereo in doubt) [Reduced argentilactone, 2H-Pyran-2-one, 6-heptyl-5,6-dihydro-, (6R)]",inhibition of the dimorphism mycelium to yeast,[1],the effect was reduced
same,MIC,[2]; acetate as carbon source,9 µg/mL
same,MIC,[2]; glucose as carbon source,18 µg/mL
same,effect on P. lutzii Pb01 yeast cells growth,[2],dose-dependent inhibition
same,IC50,PbICLr,30.2 ± 0.04 µM
same,Specific activity PbICLr,PbICLr; [4],0.93±0.01 U/mg
same,inhibition of native PbICL activity,PbICLc,inhibited
same,Specific activity PbICLc Acetate,PbICLc,0.067±0.004 U/mg
same,Specific activity PbICLc Glucose,PbICLc,0.009±0.003 U/mg
same,IC50,PbICLc; [5],60 ± 0.02 µM
same,IC50,PbICLc; [6],85 ± 0.01 µM
"CCCCC/C=C\[C@H]1CC=CC(=O)O1 [Argentilactone, 2H-Pyran-2-one, 6-(1-heptenyl)-5,6-dihydro-, [R-(Z)]]",inhibition of the dimorphism mycelium to yeast,[1],dose-dependent inhibition
same,minimal inhibitory concentration,dermatophytes,31 µg/mL
same,MIC,[2]; acetate as carbon source,9 µg/mL
same,MIC,[2]; glucose as carbon source,18 µg/mL
same,effect on P. lutzii Pb01 yeast cells growth,[2],dose-dependent inhibition
same,IC50,PbICLr,28.8 ± 0.01 µM
same,Specific activity PbICLr,PbICLr; [4],0.86±0.01 U/mg
same,PbICL specific activity,"PbICL; Mycelium to Yeast, Acetate",0.055±0.003 U
same,PbICL specific activity,"PbICL; Mycelium to Yeast, Glucose",0.055±0.001 U
same,PbICL specific activity,"PbICL; Mycelium, Acetate",0.055±0.005 U
same,PbICL specific activity,"PbICL; Mycelium, Glucose",T 0.045±0.001 U
same,PbICL specific activity,"PbICL; Yeast, Acetate",0.120±0.003 U
same,PbICL specific activity,"PbICL; Yeast, Glucose",0.085±0.001 U
same,inhibition of PbICL,PbICL; acetate,~45%
same,inhibition of PbICL,PbICL; glucose,~30%
same,inhibition of native PbICL activity,PbICLc,inhibited
same,Specific activity PbICLc Acetate,PbICLc,0.040±0.001 U/mg
same,IC50,PbICLc; [5],50 ± 0.03 µM
same,IC50,PbICLc; [6],80 ± 0.02 µM
same,decrease of viability,[3],approximately 15%
same,toxicity to MRC5 cells,MRC5 cells,not toxic
